Here are results for six cell lines from the supplement of paper PMC10307832.

Assay in all cases: relative viability (nuclei count vs DMSO), 5 days (fraction); higher = more cells survive
Compound in the assay “AZD5582 + Pictilisib”: C[C@@H](C(=O)N[C@@H](C1CCCCC1)C(=O)N2CCC[C@H]2C(=O)N[C@@H]3[C@@H](CC4=CC=CC=C34)OCC#CC#CCO[C@@H]5CC6=CC=CC=C6[C@@H]5NC(=O)[C@@H]7CCCN7C(=O)[C@H](C8CCCCC8)NC(=O)[C@H](C)NC)NC [AZD5582] + CS(=O)(=O)N1CCN(Cc2cc3nc(-c4cccc5[nH]ncc45)nc(N4CCOCC4)c3s2)CC1 [Pictilisib] (partner 1 µM)
In outline: (§1)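 Lung cancer cell lines in 1536-well plates got either a single drug or a fixed anchor-drug dose together with five library-drug doses (not always all listed) in √10 steps, by pin tool, on the day after seeding. Nuclei were counted after 5 days, and relative viability is the treated-to-vehicle ratio of nuclei counts. Values are medians of duplicate plates.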

Compound in the assay “AZD5582 + Crizotinib”: C[C@@H](C(=O)N[C@@H](C1CCCCC1)C(=O)N2CCC[C@H]2C(=O)N[C@@H]3[C@@H](CC4=CC=CC=C34)OCC#CC#CCO[C@@H]5CC6=CC=CC=C6[C@@H]5NC(=O)[C@@H]7CCCN7C(=O)[C@H](C8CCCCC8)NC(=O)[C@H](C)NC)NC [AZD5582] + C[C@@H](Oc1cc(-c2cnn(C3CCNCC3)c2)cnc1N)c1c(Cl)ccc(F)c1Cl [Crizotinib] (partner 1 µM)
The method, boiled down: as §1

Compound in the assay “AZD5582 + Linsitinib”: C[C@@H](C(=O)N[C@@H](C1CCCCC1)C(=O)N2CCC[C@H]2C(=O)N[C@@H]3[C@@H](CC4=CC=CC=C34)OCC#CC#CCO[C@@H]5CC6=CC=CC=C6[C@@H]5NC(=O)[C@@H]7CCCN7C(=O)[C@H](C8CCCCC8)NC(=O)[C@H](C)NC)NC [AZD5582] + C[C@]1(O)C[C@@H](c2nc(-c3ccc4ccc(-c5ccccc5)nc4c3)c3c(N)nccn32)C1 [Linsitinib] (partner 1 µM)
The method, boiled down: as §1

Compound in the assay “AZD5582 + OSI-027”: C[C@@H](C(=O)N[C@@H](C1CCCCC1)C(=O)N2CCC[C@H]2C(=O)N[C@@H]3[C@@H](CC4=CC=CC=C34)OCC#CC#CCO[C@@H]5CC6=CC=CC=C6[C@@H]5NC(=O)[C@@H]7CCCN7C(=O)[C@H](C8CCCCC8)NC(=O)[C@H](C)NC)NC [AZD5582] + COc1cccc2cc(-c3nc([C@H]4CC[C@H](C(=O)O)CC4)n4ncnc(N)c34)[nH]c12 [OSI-027] (partner 0.5 µM)
In outline:
as §1

Compound in the assay “AZD5582 + Tozasertib”: C[C@@H](C(=O)N[C@@H](C1CCCCC1)C(=O)N2CCC[C@H]2C(=O)N[C@@H]3[C@@H](CC4=CC=CC=C34)OCC#CC#CCO[C@@H]5CC6=CC=CC=C6[C@@H]5NC(=O)[C@@H]7CCCN7C(=O)[C@H](C8CCCCC8)NC(=O)[C@H](C)NC)NC [AZD5582] + Cc1cc(Nc2cc(N3CCN(C)CC3)nc(Sc3ccc(NC(=O)C4CC4)cc3)n2)n[nH]1 [Tozasertib] (partner 0.1 µM)
The method, boiled down: as §1

NCI-H1299: the relative viability with AZD5582 + Pictilisib (first compound 0.001581 µM) was 0.702; in the assay with AZD5582 + Pictilisib (first compound 0.005 µM), 0.879; in the assay with AZD5582 + Pictilisib (first compound 0.01581 µM), 0.822; with AZD5582 + Pictilisib (first compound 0.05 µM), 0.805; in the assay with AZD5582 + Crizotinib (first compound 0.001581 µM), 0.895; with AZD5582 + Crizotinib (first compound 0.005 µM) it was 0.895. Further, the relative viability turned out to be 0.994 with AZD5582 + Crizotinib (first compound 0.01581 µM); 0.901 in the assay with AZD5582 + Crizotinib (first compound 0.05 µM); 0.93 with AZD5582 + Linsitinib (first compound 0.001581 µM); 1.04 with AZD5582 + Linsitinib (first compound 0.005 µM); 1.01 with AZD5582 + Linsitinib (first compound 0.01581 µM); 0.97 with AZD5582 + Linsitinib (first compound 0.05 µM).
On to NCI-H1395, for which the relative viability is 0.601 with AZD5582 + Pictilisib (first compound 0.001581 µM); 0.698 in the assay with AZD5582 + Pictilisib (first compound 0.005 µM); 0.632 with AZD5582 + Pictilisib (first compound 0.05 µM); 0.7 with AZD5582 + OSI-027 (first compound 0.001581 µM); 0.734 with AZD5582 + OSI-027 (first compound 0.005 µM); 0.583 in the assay with AZD5582 + OSI-027 (first compound 0.01581 µM). Also, the relative viability with AZD5582 + OSI-027 (first compound 0.05 µM) was 0.767; in the assay with AZD5582 + Linsitinib (first compound 0.001581 µM), 1.05; in the assay with AZD5582 + Linsitinib (first compound 0.005 µM), 1.03; with AZD5582 + Linsitinib (first compound 0.05 µM) it was 1.11; with AZD5582 + Tozasertib (first compound 0.001581 µM), 0.703; in the assay with AZD5582 + Tozasertib (first compound 0.005 µM), 0.714. Moreover, the relative viability with AZD5582 + Tozasertib (first compound 0.01581 µM) amounted to 0.81; with AZD5582 + Tozasertib (first compound 0.05 µM) it was 0.797.
As to NCI-H1563, the relative viability with AZD5582 + Pictilisib (first compound 0.001581 µM) is 0.644; with AZD5582 + Pictilisib (first compound 0.005 µM) it was 0.642; with AZD5582 + Pictilisib (first compound 0.01581 µM), 0.62; in the assay with AZD5582 + Pictilisib (first compound 0.05 µM), 0.729; with AZD5582 + Crizotinib (first compound 0.001581 µM), 0.8; with AZD5582 + Crizotinib (first compound 0.005 µM), 0.86. For the same cell line, the relative viability with AZD5582 + Crizotinib (first compound 0.01581 µM) is 0.852; with AZD5582 + Crizotinib (first compound 0.05 µM), 0.978; with AZD5582 + OSI-027 (first compound 0.001581 µM), 0.688; with AZD5582 + OSI-027 (first compound 0.005 µM) it was 0.709; with AZD5582 + OSI-027 (first compound 0.01581 µM) it was 0.731; in the assay with AZD5582 + OSI-027 (first compound 0.05 µM) it was 0.679. The relative viability in the assay with AZD5582 + Linsitinib (first compound 0.001581 µM) was 1.23; with AZD5582 + Linsitinib (first compound 0.005 µM), 1.18; in the assay with AZD5582 + Linsitinib (first compound 0.01581 µM) it was 1.24; in the assay with AZD5582 + Linsitinib (first compound 0.05 µM), 1.15.
On to NCI-H1623, for which the relative viability in the assay with AZD5582 + OSI-027 (first compound 0.001581 µM) is 0.422; with AZD5582 + OSI-027 (first compound 0.005 µM) it was 0.407; in the assay with AZD5582 + OSI-027 (first compound 0.01581 µM), 0.457; with AZD5582 + OSI-027 (first compound 0.05 µM), 0.432; in the assay with AZD5582 + Tozasertib (first compound 0.001581 µM) it was 0.441; in the assay with AZD5582 + Tozasertib (first compound 0.005 µM), 0.455. Moreover, the figures for the relative viability in the assay with AZD5582 + Tozasertib (first compound 0.01581 µM) and in the assay with AZD5582 + Tozasertib (first compound 0.05 µM) were 0.444 and 0.432, respectively.
As for NCI-H1648, the relative viability with AZD5582 + OSI-027 (first compound 0.005 µM) is 0.266; with AZD5582 + OSI-027 (first compound 0.01581 µM), 0.228; with AZD5582 + OSI-027 (first compound 0.05 µM), 0.301; with AZD5582 + Tozasertib (first compound 0.005 µM), 0.549; with AZD5582 + Tozasertib (first compound 0.01581 µM), 0.37; with AZD5582 + Tozasertib (first compound 0.05 µM), 0.615.
As to NCI-H1650, the relative viability in the assay with AZD5582 + Pictilisib (first compound 0.001581 µM) came to 0.535; with AZD5582 + Pictilisib (first compound 0.005 µM), 0.738; in the assay with AZD5582 + Pictilisib (first compound 0.01581 µM), 0.485; with AZD5582 + Pictilisib (first compound 0.05 µM) it was 0.604; with AZD5582 + Crizotinib (first compound 0.001581 µM) it was 0.904; with AZD5582 + Crizotinib (first compound 0.005 µM) it was 0.964. Moreover, the relative viability with AZD5582 + Crizotinib (first compound 0.01581 µM) was determined as 0.88; in the assay with AZD5582 + Crizotinib (first compound 0.05 µM), 0.736; in the assay with AZD5582 + OSI-027 (first compound 0.001581 µM) it was 0.599; with AZD5582 + OSI-027 (first compound 0.005 µM) it was 0.859; in the assay with AZD5582 + OSI-027 (first compound 0.01581 µM), 0.547; with AZD5582 + OSI-027 (first compound 0.05 µM), 0.564. The relative viability was determined as 0.358 with AZD5582 + Tozasertib (first compound 0.001581 µM), 0.326 with AZD5582 + Tozasertib (first compound 0.005 µM), 0.389 with AZD5582 + Tozasertib (first compound 0.01581 µM) and 0.304 in the assay with AZD5582 + Tozasertib (first compound 0.05 µM).
